Results published in the NIST ThermoML archive (doi:10.1016/j.jct.2014.03.001).
Numbers after ± are expanded uncertainties.

Assay: mn = molality of the nth substance listed, in mol/kg
Conditions: 84.51 kPa, Liquid; for speed of sound: Frequency=3 MHz, Sing-around technique in a fixed-path interferometer; for mass density: Vibrating tube method

CCCCCCCCCCCCn1cc[n+](C)c1.[Br-] [1-dodecyl-3-methylimidazolium bromide] + O
Conditions | mass density [kg/m3] | speed of sound [m/s]
288.15 K, m1 = 0.00233 | 999.188 ± 0.11 | 1467.3 ± 1.2
288.15 K, m1 = 0.00278 | 999.209 ± 0.11 | 1467.4 ± 1.2
288.15 K, m1 = 0.00301 | 999.216 ± 0.11 | 1467.5 ± 1.2
288.15 K, m1 = 0.00467 | 999.282 ± 0.11 | 1467.7 ± 1.2
288.15 K, m1 = 0.00501 | 999.296 ± 0.11 | 1467.9 ± 1.2
288.15 K, m1 = 0.00665 | 999.36 ± 0.11 | 1468.4 ± 1.2
288.15 K, m1 = 0.00889 | 999.451 ± 0.11 | 1469 ± 1.2
288.15 K, m1 = 0.00906 | 999.458 ± 0.11 | 1469 ± 1.2
288.15 K, m1 = 0.01229 | 999.569 ± 0.11 | 1469.4 ± 1.2
288.15 K, m1 = 0.01511 | 999.659 ± 0.11 | 1469.4 ± 1.2
288.15 K, m1 = 0.01804 | 999.736 ± 0.11 | 1469.5 ± 1.2
288.15 K, m1 = 0.02431 | 999.927 ± 0.11 | 1469.6 ± 1.2
288.15 K, m1 = 0.03042 | 1000.12 ± 0.11 | 1469.7 ± 1.2
288.15 K, m1 = 0.04595 | 1000.6 ± 0.11 | 1470 ± 1.2
288.15 K, m1 = 0.06124 | 1001.06 ± 0.11 | 1470.2 ± 1.2
288.15 K, m1 = 0.07667 | 1001.51 ± 0.11 | 1470.5 ± 1.2
288.15 K, m1 = 0.098 | 1002.15 ± 0.11 | 1471 ± 1.2
288.15 K, m1 = 0.1095 | 1002.5 ± 0.11 | 1471.1 ± 1.2
293.15 K, m1 = 0.00233 | 998.288 ± 0.11 | 1483.3 ± 1.2
293.15 K, m1 = 0.00278 | 998.306 ± 0.11 | 1483.3 ± 1.2
293.15 K, m1 = 0.00301 | 998.314 ± 0.11 | 1483.4 ± 1.2
293.15 K, m1 = 0.00467 | 998.376 ± 0.11 | 1483.7 ± 1.2
293.15 K, m1 = 0.00501 | 998.39 ± 0.11 | 1483.9 ± 1.2
293.15 K, m1 = 0.00665 | 998.451 ± 0.11 | 1484.2 ± 1.2
293.15 K, m1 = 0.00889 | 998.538 ± 0.12 | 1484.8 ± 1.3
293.15 K, m1 = 0.00906 | 998.544 ± 0.12 | 1484.8 ± 1.3
293.15 K, m1 = 0.01229 | 998.652 ± 0.11 | 1485.1 ± 1.2
293.15 K, m1 = 0.01511 | 998.738 ± 0.11 | 1485.1 ± 1.2
293.15 K, m1 = 0.01804 | 998.815 ± 0.11 | 1485.2 ± 1.2
293.15 K, m1 = 0.02431 | 998.999 ± 0.11 | 1485.2 ± 1.2
293.15 K, m1 = 0.03042 | 999.185 ± 0.11 | 1485.3 ± 1.2
293.15 K, m1 = 0.04595 | 999.641 ± 0.11 | 1485.4 ± 1.2
293.15 K, m1 = 0.06124 | 1000.09 ± 0.11 | 1485.5 ± 1.2
293.15 K, m1 = 0.07667 | 1000.53 ± 0.11 | 1485.7 ± 1.2
293.15 K, m1 = 0.098 | 1001.14 ± 0.11 | 1486 ± 1.2
293.15 K, m1 = 0.1095 | 1001.48 ± 0.11 | 1486.1 ± 1.2
298.15 K, m1 = 0.00233 | 997.123 ± 0.11 | 1497.4 ± 1.2
298.15 K, m1 = 0.00278 | 997.142 ± 0.11 | 1497.4 ± 1.2
298.15 K, m1 = 0.00301 | 997.148 ± 0.11 | 1497.6 ± 1.2
298.15 K, m1 = 0.00467 | 997.208 ± 0.11 | 1497.8 ± 1.2
298.15 K, m1 = 0.00501 | 997.221 ± 0.11 | 1497.9 ± 1.2
298.15 K, m1 = 0.00665 | 997.28 ± 0.11 | 1498.2 ± 1.2
298.15 K, m1 = 0.00889 | 997.362 ± 0.12 | 1498.8 ± 1.3
298.15 K, m1 = 0.00906 | 997.366 ± 0.12 | 1498.8 ± 1.3
298.15 K, m1 = 0.01229 | 997.472 ± 0.11 | 1499.1 ± 1.2
298.15 K, m1 = 0.01511 | 997.555 ± 0.11 | 1499.1 ± 1.2
298.15 K, m1 = 0.01804 | 997.629 ± 0.11 | 1499.1 ± 1.2
298.15 K, m1 = 0.02431 | 997.806 ± 0.11 | 1499.1 ± 1.2
298.15 K, m1 = 0.03042 | 997.989 ± 0.11 | 1499.1 ± 1.2
298.15 K, m1 = 0.04595 | 998.429 ± 0.11 | 1499.1 ± 1.2
298.15 K, m1 = 0.06124 | 998.861 ± 0.11 | 1499 ± 1.2
298.15 K, m1 = 0.07667 | 999.288 ± 0.11 | 1499.1 ± 1.2
298.15 K, m1 = 0.098 | 999.878 ± 0.11 | 1499.2 ± 1.2
298.15 K, m1 = 0.1095 | 1000.21 ± 0.11 | 1499.2 ± 1.2
303.15 K, m1 = 0.00233 | 995.721 ± 0.11 | 1509.7 ± 1.2
303.15 K, m1 = 0.00278 | 995.74 ± 0.11 | 1509.7 ± 1.2
303.15 K, m1 = 0.00301 | 995.746 ± 0.11 | 1509.8 ± 1.2
303.15 K, m1 = 0.00467 | 995.801 ± 0.11 | 1510 ± 1.2
303.15 K, m1 = 0.00501 | 995.814 ± 0.11 | 1510 ± 1.2
303.15 K, m1 = 0.00665 | 995.873 ± 0.11 | 1510.4 ± 1.2
303.15 K, m1 = 0.00889 | 995.95 ± 0.12 | 1511 ± 1.3
303.15 K, m1 = 0.00906 | 995.955 ± 0.11 | 1511 ± 1.3
303.15 K, m1 = 0.01229 | 996.058 ± 0.11 | 1511.2 ± 1.2
303.15 K, m1 = 0.01511 | 996.137 ± 0.11 | 1511.2 ± 1.2
303.15 K, m1 = 0.01804 | 996.207 ± 0.11 | 1511.2 ± 1.2
303.15 K, m1 = 0.02431 | 996.381 ± 0.11 | 1511.1 ± 1.2
303.15 K, m1 = 0.03042 | 996.556 ± 0.11 | 1511 ± 1.2
303.15 K, m1 = 0.04595 | 996.985 ± 0.11 | 1510.9 ± 1.2
303.15 K, m1 = 0.06124 | 997.402 ± 0.11 | 1510.8 ± 1.2
303.15 K, m1 = 0.07667 | 997.814 ± 0.11 | 1510.7 ± 1.2
303.15 K, m1 = 0.098 | 998.386 ± 0.11 | 1510.5 ± 1.2
303.15 K, m1 = 0.1095 | 998.705 ± 0.11 | 1510.5 ± 1.2
308.15 K, m1 = 0.00233 | 994.1 ± 0.11 | 1520.3 ± 1.2
308.15 K, m1 = 0.00278 | 994.121 ± 0.11 | 1520.2 ± 1.2
308.15 K, m1 = 0.00301 | 994.125 ± 0.11 | 1520.4 ± 1.2
308.15 K, m1 = 0.00467 | 994.18 ± 0.11 | 1520.6 ± 1.2
308.15 K, m1 = 0.00501 | 994.193 ± 0.11 | 1520.6 ± 1.2
308.15 K, m1 = 0.00665 | 994.246 ± 0.11 | 1520.9 ± 1.2
308.15 K, m1 = 0.00889 | 994.32 ± 0.12 | 1521.4 ± 1.3
308.15 K, m1 = 0.00906 | 994.325 ± 0.11 | 1521.4 ± 1.3
308.15 K, m1 = 0.01229 | 994.423 ± 0.11 | 1521.7 ± 1.2
308.15 K, m1 = 0.01511 | 994.502 ± 0.11 | 1521.6 ± 1.2
308.15 K, m1 = 0.01804 | 994.571 ± 0.11 | 1521.6 ± 1.2
308.15 K, m1 = 0.02431 | 994.739 ± 0.11 | 1521.5 ± 1.2
308.15 K, m1 = 0.03042 | 994.91 ± 0.11 | 1521.4 ± 1.2
308.15 K, m1 = 0.04595 | 995.323 ± 0.11 | 1521.1 ± 1.2
308.15 K, m1 = 0.06124 | 995.729 ± 0.11 | 1520.8 ± 1.2
308.15 K, m1 = 0.07667 | 996.129 ± 0.11 | 1520.7 ± 1.2
308.15 K, m1 = 0.098 | 996.685 ± 0.11 | 1520.3 ± 1.2
308.15 K, m1 = 0.1095 | 996.993 ± 0.11 | 1520.1 ± 1.2
313.15 K, m1 = 0.00233 | 992.28 ± 0.11 | 1529.3 ± 1.2
313.15 K, m1 = 0.00278 | 992.299 ± 0.11 | 1529.3 ± 1.2
313.15 K, m1 = 0.00301 | 992.305 ± 0.11 | 1529.4 ± 1.2
313.15 K, m1 = 0.00467 | 992.357 ± 0.11 | 1529.6 ± 1.2
313.15 K, m1 = 0.00501 | 992.368 ± 0.11 | 1529.6 ± 1.2
313.15 K, m1 = 0.00665 | 992.422 ± 0.11 | 1529.8 ± 1.2
313.15 K, m1 = 0.00889 | 992.489 ± 0.11 | 1530.3 ± 1.2
313.15 K, m1 = 0.00906 | 992.495 ± 0.11 | 1530.3 ± 1.2
313.15 K, m1 = 0.01229 | 992.591 ± 0.11 | 1530.6 ± 1.2
313.15 K, m1 = 0.01511 | 992.671 ± 0.11 | 1530.5 ± 1.2
313.15 K, m1 = 0.01804 | 992.736 ± 0.11 | 1530.5 ± 1.2
313.15 K, m1 = 0.02431 | 992.896 ± 0.11 | 1530.3 ± 1.2
313.15 K, m1 = 0.03042 | 993.064 ± 0.11 | 1530.1 ± 1.2
313.15 K, m1 = 0.04595 | 993.467 ± 0.11 | 1529.7 ± 1.2
313.15 K, m1 = 0.06124 | 993.86 ± 0.11 | 1529.3 ± 1.2
313.15 K, m1 = 0.07667 | 994.248 ± 0.11 | 1529 ± 1.2
313.15 K, m1 = 0.098 | 994.79 ± 0.11 | 1528.5 ± 1.2
313.15 K, m1 = 0.1095 | 995.087 ± 0.11 | 1528.2 ± 1.2
